In brackets after ≈: the same amount, converted by molar mass. Activity calls are given as the source filed them. The calls are words filed in the database; no cut-off is given here.
Legend:
Assay type in all cases: functional, organism-based
Trypanosoma cruzi [1] = assay: Antitrypanosomal activity against trypomastigote form of Trypanosoma cruzi NINOA after 24 hr by Neubauer counting method
Trypanosoma cruzi [2] = assay: Antitrypanosomal activity against trypomastigote form of Trypanosoma cruzi INC5 after 24 hr by Neubauer counting method; conditions: INC5, 24 h
Trypanosoma cruzi [3] = assay: Antitrypanosomal activity against trypomastigote form of Trypanosoma cruzi NINOA at 5 to 250 ug/ml after 24 hr by Neubauer counting method
Trypanosoma cruzi [4] = assay: Antitrypanosomal activity against trypomastigote form of Trypanosoma cruzi INC5 at 5 to 250 ug/ml after 24 hr by Neubauer counting method

SMILES | IC50 (Trypanosoma cruzi [1]) [µg/mL] | IC50 (Trypanosoma cruzi [2]) [µg/mL] | Activity (Trypanosoma cruzi [3]) | Activity (Trypanosoma cruzi [4])
Cc1ccc2nc(/C=C/C(=O)O)oc2c1 | 266 (≈ 1310 µM) | 421 (≈ 2070 µM) | – | –
O=C(O)/C=C/c1nc2ccccc2o1 | – | – | Active | Active
O=C(Cn1ccnc1[N+](=O)[O-])NCc1ccccc1 [BENZNIDAZOLE] | 117 (≈ 448 µM) | 205 (≈ 786 µM) | – | –

Source: ChEMBL document CHEMBL3046077, “Synthesis and theoretic calculations of benzoxazoles and docking studies of their interactions with triosephosphate isomerase” (Med Chem Res, 2013)
